In US4366149A, “Antitumor anthracycline glycosides, their preparation, intermediates therefor, and compositions and use thereof” (priority 1980, dated 1982):
Values after ≈ are worked out from the molar mass of the structure shown. Where two headings read alike, the source gives them in different places.

Columns and labels:
HeLa cells = HeLa cells cloning efficiency in vitro; format: cell-based; settings: for IC50: read-out: ID50 (HeLa cells cloning efficiency); for cytotoxicity on HeLa cells cloning efficiency, in words: in vitro, compared with daunorubicin
Description: Activity on HeLa cells cloning efficiency in vitro. Treatment for 24 hours

P388 ascitic leukemia = test: Activity against P388 ascitic leukemia in mice; format: in vivo; settings: for activity against P388 leukemia, in words: preliminary test in mice
Excerpt: Activity against P388 ascitic leukemia. Treatment i.p. on day one after tumour inoculation.

[1] = 2.9 mg/kg i.p. on day one after tumour inoculation
[2] = 4.4 mg/kg i.p. on day one after tumour inoculation
[3] = 6.6 mg/kg i.p. on day one after tumour inoculation
[4] = Homo sapiens, HeLa, 24 h, read-out: % of controls (HeLa cells cloning efficiency)
[5] = 6 mg/kg i.p. on day one after tumour inoculation
[6] = 9 mg/kg i.p. on day one after tumour inoculation
[7] = 13.5 mg/kg i.p. on day one after tumour inoculation
[8] = 10 mg/kg i.p. on day one after tumour inoculation
[9] = 20 mg/kg i.p. on day one after tumour inoculation
[10] = 40 mg/kg i.p. on day one after tumour inoculation

COc1cccc2c1C(=O)c1c(O)c3c(c(O)c1C2=O)C[C@@](O)(C(C)=O)C[C@@H]3O[C@H]1C[C@H](N)[C@H](O)[C@H](C)O1 [Daunorubicin, daunorubicin, reference compound]
activity at 0.0031 µg/mL (HeLa cells; Homo sapiens, HeLa, dose 3.1 ng/ml, treatment for 24 hours, data of 2 experiments, read-out: % of controls (HeLa cells cloning efficiency)): 88 to 98% | activity at 0.0062 µg/mL (HeLa cells; Homo sapiens, HeLa, dose 6.2 ng/ml, treatment for 24 hours (daunorubicin: data of 2 experiments), read-out: % of controls (HeLa cells cloning efficiency)): 73 to 87% | IC50 (HeLa cells; Homo sapiens, HeLa, treatment for 24 hours (daunorubicin: data of 2 experiments)): 0.012 µg/mL (≈ 0.0227 µM) | T/C % (P388 ascitic leukemia; [1]): 181% | Toxicity Deaths (P388 ascitic leukemia; [1]): 0/10 | T/C % (P388 ascitic leukemia; [2]): 140% | Toxicity Deaths (P388 ascitic leukemia; [2]): 9/10 | T/C % (P388 ascitic leukemia; [3]): 118% | Toxicity Deaths (P388 ascitic leukemia; [3]): 10/10

COc1cccc2c1C(=O)c1c(O)c3c(c(O)c1C2=O)C[C@@](O)(C(C)=O)C[C@@H]3O[C@H]1C[C@H](N)[C@H](N)[C@H](C)O1 [XOO-O132 (I-A), 4'-amino-4'-deoxy-daunorubicin]
activity at 0.0062 µg/mL (HeLa cells; [4]): 98% | activity at 0.025 µg/mL (HeLa cells; [4]): 70% | activity at 0.1 µg/mL (HeLa cells; [4]): 0% | IC50 (HeLa cells; Homo sapiens, HeLa, 24 h): 0.035 µg/mL (≈ 0.0665 µM) | cytotoxicity on HeLa cells cloning efficiency, in words (HeLa cells): less cytotxic than daunorubicin | T/C % (P388 ascitic leukemia; [5]): 181% | Toxicity Deaths (P388 ascitic leukemia; [5]): 0/10 | T/C % (P388 ascitic leukemia; [6]): 190% | Toxicity Deaths (P388 ascitic leukemia; [6]): 0/10 | T/C % (P388 ascitic leukemia; [7]): 222% | Toxicity Deaths (P388 ascitic leukemia; [7]): 0/10 | activity at the maximal dose tested, in words (P388 ascitic leukemia; P388 leukemia in mice, 13.5 mg/kg): highly active | toxicity, in words (P388 ascitic leukemia; P388 leukemia in mice, compared with daunorubicin): less toxic than daunorubicin | activity against P388 leukemia, in words (P388 ascitic leukemia; compared with daunorubicin): much more active daunorubicin

COc1cccc2c1C(=O)c1c(O)c3c(c(O)c1C2=O)C[C@@](O)(C(C)=O)C[C@@H]3O[C@H]1C[C@H](N)[C@@H](NC(=O)C(F)(F)F)[C@H](C)O1 [XOO-O136 (I-B), 4'-deoxy-4'-epi-trifluoroacetamido-daunorubicin]
activity at 0.1 µg/mL (HeLa cells; [4]): 211% | activity at 0.4 µg/mL (HeLa cells; [4]): 21% | activity at 1.6 µg/mL (HeLa cells; [4]): 0% | IC50 (HeLa cells; Homo sapiens, HeLa, 24 h): 0.18 µg/mL (≈ 0.289 µM) | cytotoxicity on HeLa cells cloning efficiency, in words (HeLa cells): less cytotxic than daunorubicin | T/C % (P388 ascitic leukemia; [8]): 145% | Toxicity Deaths (P388 ascitic leukemia; [8]): 0/10 | T/C % (P388 ascitic leukemia; [9]): 154% | Toxicity Deaths (P388 ascitic leukemia; [9]): 0/10 | T/C % (P388 ascitic leukemia; [10]): 163% | Toxicity Deaths (P388 ascitic leukemia; [10]): 2/10 | activity against P388 leukemia, in words (P388 ascitic leukemia; compared with daunorubicin): much more active daunorubicin
